{"source": "patent US20250144067A1", "about": "“PERSONALIZED STARVATION THERAPY FOR CANCER” (Faeth Therapeutics, Inc., priority 2021, published 2025)", "key": {"[1]": {"system": "NCI-H292 lung cancer cells", "experiment": "FDA drug screening, complete media vs cholesterol-free media without statin (TABLE 1)", "type": "cell-based, human"}, "[2]": {"system": "NCI-H292 lung cancer cells", "experiment": "FDA drug screening, complete media vs cholesterol-free media with simvastatin (TABLE 2)", "type": "cell-based, human", "conditions": "for Cholesterol-free media + simvastatin (0.04 μM) / Complete Media: NCI-H292 cells"}, "[3]": {"conditions": "cholesterol-free media with simvastatin 0.04 μM, FDA drug library screen (TABLE 2)"}, "[4]": {"conditions": "complete media, FDA drug library screen (TABLE 2)"}, "[5]": {"conditions": "complete media minus cholesterol-free media + simvastatin (0.04 μM), >0 enhanced anti-cancer activity, about 0 neutral, <0 antagonist"}, "[6]": {"conditions": "complete vs cholesterol-free media, […]"}, "[7]": {"conditions": "NCI-H292 cells, cholesterol-free media without statin"}, "[8]": {"conditions": "complete vs cholesterol-free media, greater than 0 enhanced anti-cancer activity, about 0 neutral, below 0 antagonists"}, "[9]": {"conditions": "drug in cholesterol-free media with simvastatin 0.04 μM"}, "[10]": {"conditions": "complete media vs cholesterol-free media + simvastatin (0.04 μM), >0 enhanced anti-cancer activity, about 0 neutral, <0 antagonist"}, "[11]": {"conditions": "NCI-H292 cells, cholesterol-free media without statin, FDA drug library screen"}, "[12]": {"conditions": "NCI-H292 cells, complete media, FDA drug library screen"}, "[13]": {"conditions": "complete vs cholesterol-free media, >0 enhanced anti-cancer activity, about 0 neutral, <0 antagonist"}, "[14]": {"conditions": "Complete minus Cholesterol-free, greater than 0 enhanced anti-cancer activity, about 0 neutral, below 0 antagonists"}, "[15]": {"conditions": "NCI-H292 cells in cholesterol-free media without statin"}, "[16]": {"conditions": "NCI-H292 cells in complete media"}, "[17]": {"conditions": "FDA drug library screen, cholesterol-free media with simvastatin 0.04 μM"}, "[18]": {"conditions": "FDA drug library screen, complete media"}, "[19]": {"conditions": "complete media minus cholesterol-free media + simvastatin, >0 enhanced anti-cancer activity, about 0 neutral, <0 antagonist"}, "[20]": {"conditions": "Complete minus Cholesterol-free, >0 enhanced anti-cancer activity, about 0 neutral, <0 antagonist"}, "[21]": {"conditions": "cholesterol-free media with simvastatin 0.04 μM, cell growth value in FDA drug screen"}, "[22]": {"conditions": "complete media, cell growth value in FDA drug screen"}, "[23]": {"conditions": "FDA library drug in cholesterol-free media with simvastatin 0.04 μM"}, "[24]": {"conditions": "FDA library drug in complete media"}}, "note": "Structures can show the parent of a compound that is named as a salt."}
{"compound": "OC1(c2ccc(Cl)c(C(F)(F)F)c2)CCN(CCCC(c2ccc(F)cc2)c2ccc(F)cc2)CC1", "note": "[Penfluridol]", "values": [{"measurement": "Difference", "setting": "[1]; Complete minus Cholesterol-free, greater than 0 enhanced anti-cancer activity, about 0 neutral, below 0 antagonist", "value": "−0.14"}, {"measurement": "Cholesterol-free", "setting": "[1]; NCI-H292 cells, FDA drug library screen, cholesterol-free media without statin", "value": 0.7419}, {"measurement": "Complete", "setting": "[1]; NCI-H292 cells, FDA drug library screen, complete media", "value": 0.6047}, {"measurement": "Cholesterol-free media + simvastatin (0.04 μM)", "setting": "[2]; [3]", "value": 1.076}, {"measurement": "Complete Media", "setting": "[2]; [4]", "value": 1.033}, {"measurement": "Difference", "setting": "[2]; [5]", "value": "−0.04"}]}
{"compound": "Catechin", "values": [{"measurement": "Complete", "setting": "[1]; NCI-H292 cells, complete media", "value": 0.7264}, {"measurement": "Difference", "setting": "[1]; [6]", "value": "−0.38"}, {"measurement": "Cholesterol-free media + simvastatin (0.04 μM)", "setting": "[2]; [3]", "value": 1.661}, {"measurement": "Difference", "setting": "[2]; complete media minus cholesterol-free media + simvastatin (0.04 μM), […]", "value": "−0.02"}]}
{"compound": "CCCOC(=O)c1cc(O)c(O)c(O)c1", "note": "[Propyl gallate]", "values": [{"measurement": "Cholesterol-free", "setting": "[1]; [7]", "value": 1.541}, {"measurement": "Complete", "setting": "[1]; NCI-H292 cells, complete media", "value": 1.125}, {"measurement": "Difference", "setting": "[1]; [8]", "value": "−0.42"}, {"measurement": "Cholesterol-free media + simvastatin (0.04 μM)", "setting": "[2]; [9]", "value": 1.306}, {"measurement": "Complete Media", "setting": "[2]; drug in complete media", "value": 1.135}, {"measurement": "Difference", "setting": "[2]; [10]", "value": "−0.17"}]}
{"compound": "C[N+]1(C)[C@@H]2CC[C@H]1C[C@@H](OC(=O)C(CO)c1ccccc1)C2", "note": "(stereo partly shown) [Atropine methyl bromide]", "values": [{"measurement": "Cholesterol-free", "setting": "[1]; [11]", "value": 1.114}, {"measurement": "Complete", "setting": "[1]; [12]", "value": 1.708}, {"measurement": "Difference", "setting": "[1]; [13]", "value": 0.59}, {"measurement": "Cholesterol-free media + simvastatin (0.04 μM)", "setting": "[2]; [9]", "value": 1.143}, {"measurement": "Complete Media", "setting": "[2]; drug in complete media", "value": 0.9562}, {"measurement": "Difference", "setting": "[2]; [10]", "value": "−0.19"}]}
{"compound": "CCN(c1cc(-c2ccc(CN3CCOCC3)cc2)cc(C(=O)NCc2c(C)cc(C)[nH]c2=O)c1C)C1CCOCC1", "note": "[Tazemetostat (hydrobromide)]", "values": [{"measurement": "Difference", "setting": "[1]; [14]", "value": "−0.47"}, {"measurement": "Cholesterol-free", "setting": "[1]; [15]", "value": 1.683}, {"measurement": "Complete", "setting": "[1]; [16]", "value": 1.209}, {"measurement": "Cholesterol-free media + simvastatin (0.04 μM)", "setting": "[2]; [17]", "value": 0.8785}, {"measurement": "Complete Media", "setting": "[2]; [18]", "value": 1.469}, {"measurement": "Difference", "setting": "[2]; [19]", "value": 0.59}]}
{"compound": "CC(=O)N1CCN(c2ccc(OC[C@H]3CO[C@](Cn4ccnc4)(c4ccc(Cl)cc4Cl)O3)cc2)CC1", "note": "[(+)-Ketoconazole]", "values": [{"measurement": "Difference", "setting": "[1]; [20]", "value": "−0.24"}, {"measurement": "Cholesterol-free", "setting": "[1]; [7]", "value": 1.237}, {"measurement": "Complete", "setting": "[1]; NCI-H292 cells, complete media", "value": 0.9934}, {"measurement": "Cholesterol-free media + simvastatin (0.04 μM)", "setting": "[2]; [17]", "value": 0.4743}, {"measurement": "Complete Media", "setting": "[2]; [18]", "value": 0.9511}, {"measurement": "Difference", "setting": "[2]; [19]", "value": 0.48}]}
{"compound": "CCCCOc1cc(C(=O)NCCN(CC)CC)c2ccccc2n1", "note": "[Dibucaine]", "values": [{"measurement": "Difference", "setting": "[1]; [14]", "value": "−0.63"}, {"measurement": "Cholesterol-free", "setting": "[1]; [15]", "value": 1.382}, {"measurement": "Complete", "setting": "[1]; [16]", "value": 0.749}, {"measurement": "Cholesterol-free media + simvastatin (0.04 μM)", "setting": "[2]; [21]", "value": 0.8438}, {"measurement": "Complete Media", "setting": "[2]; [22]", "value": 0.9323}, {"measurement": "Difference", "setting": "[2]; [19]", "value": 0.09}]}
{"compound": "N[C@H](Cc1ccc(O)cc1)C(=O)O", "note": "[D-Tyrosine]", "values": [{"measurement": "Difference", "setting": "[1]; [20]", "value": "−0.01"}, {"measurement": "Cholesterol-free", "setting": "[1]; [11]", "value": 1.081}, {"measurement": "Complete", "setting": "[1]; [12]", "value": 1.068}, {"measurement": "Cholesterol-free media + simvastatin (0.04 μM)", "setting": "[2]; [23]", "value": 1.43}, {"measurement": "Complete Media", "setting": "[2]; [24]", "value": 0.9975}, {"measurement": "Difference", "setting": "[2]; [10]", "value": "−0.43"}]}
{"compound": "CCCNC(C)C(=O)Nc1ccccc1C", "note": "(stereo not shown) [Prilocaine]", "values": [{"measurement": "Difference", "setting": "[1]; [14]", "value": "−0.49"}, {"measurement": "Cholesterol-free", "setting": "[1]; [15]", "value": 1.366}, {"measurement": "Complete", "setting": "[1]; [16]", "value": 0.8796}, {"measurement": "Cholesterol-free media + simvastatin (0.04 μM)", "setting": "[2]; [9]", "value": 1.231}, {"measurement": "Complete Media", "setting": "[2]; drug in complete media", "value": 0.9727}, {"measurement": "Difference", "setting": "[2]; [10]", "value": "−0.26"}]}
{"compound": "COc1ccc2c(c1)C(=O)N(CCc1ccc(S(=O)(=O)NC(=O)NC3CCCCC3)cc1)C(=O)C2(C)C", "note": "[Gliquidone]", "values": [{"measurement": "Difference", "setting": "[1]; [14]", "value": "−0.68"}, {"measurement": "Cholesterol-free", "setting": "[1]; [15]", "value": 1.724}, {"measurement": "Complete", "setting": "[1]; [16]", "value": 1.039}, {"measurement": "Cholesterol-free media + simvastatin (0.04 μM)", "setting": "[2]; [23]", "value": 1.335}, {"measurement": "Complete Media", "setting": "[2]; [24]", "value": 1.002}, {"measurement": "Difference", "setting": "[2]; [10]", "value": "−0.33"}]}
{"compound": "Nc1c(CC(=O)O)cccc1C(=O)c1ccccc1", "note": "[Amfenac (Sodium Hydrate)]", "values": [{"measurement": "Cholesterol-free", "setting": "[1]; [11]", "value": 1.155}, {"measurement": "Complete", "setting": "[1]; [12]", "value": 1.799}, {"measurement": "Difference", "setting": "[1]; [13]", "value": 0.64}, {"measurement": "Cholesterol-free media + simvastatin (0.04 μM)", "setting": "[2]; [3]", "value": 0.8959}, {"measurement": "Complete Media", "setting": "[2]; [4]", "value": 0.8462}, {"measurement": "Difference", "setting": "[2]; [5]", "value": "−0.05"}]}
{"compound": "COc1ccc([C@@H]2Sc3ccccc3N(CCN(C)C)C(=O)[C@@H]2OC(C)=O)cc1", "note": "[Diltiazem (hydrochloride)]", "values": [{"measurement": "Cholesterol-free", "setting": "[1]; [7]", "value": 1.001}, {"measurement": "Complete", "setting": "[1]; NCI-H292 cells, complete media", "value": 0.6844}, {"measurement": "Difference", "setting": "[1]; [8]", "value": "−0.32"}, {"measurement": "Cholesterol-free media + simvastatin (0.04 μM)", "setting": "[2]; [17]", "value": 1.317}, {"measurement": "Complete Media", "setting": "[2]; [18]", "value": 1.159}, {"measurement": "Difference", "setting": "[2]; [10]", "value": "−0.16"}]}
{"compound": "O=C(Oc1ccccc1C(=O)O)c1ccccc1O", "note": "[Salsalate]", "values": [{"measurement": "Cholesterol-free", "setting": "[1]; [7]", "value": 1.58}, {"measurement": "Complete", "setting": "[1]; NCI-H292 cells, complete media", "value": 1.132}, {"measurement": "Difference", "setting": "[1]; [8]", "value": "−0.45"}, {"measurement": "Cholesterol-free media + simvastatin (0.04 μM)", "setting": "[2]; [21]", "value": 0.8804}, {"measurement": "Complete Media", "setting": "[2]; [22]", "value": 0.9361}, {"measurement": "Difference", "setting": "[2]; [19]", "value": 0.06}]}
{"compound": "N[C@@H](CCC(=O)O)C(=O)O", "note": "[(S)-Glutamic acid]", "values": [{"measurement": "Cholesterol-free", "setting": "[1]; [11]", "value": 1.299}, {"measurement": "Complete", "setting": "[1]; [12]", "value": 1.635}, {"measurement": "Difference", "setting": "[1]; [6]", "value": 0.34}, {"measurement": "Cholesterol-free media + simvastatin (0.04 μM)", "setting": "[2]; [17]", "value": 0.9378}, {"measurement": "Complete Media", "setting": "[2]; [18]", "value": 0.8445}, {"measurement": "Difference", "setting": "[2]; complete media vs cholesterol-free media + simvastatin (0.04 μM), […]", "value": "−0.09"}]}
